Reference: patent publication US20100004193A1, “COMBINATION THERAPY” (FONDAZIONE PER LA RICERCA BIOMEDICA AVANZATA ONLUS - …, priority 2008, published 2010)

Tests used:
[1] = system: T-24, HT-1197, HT-1376, MCF-7, A-549 and AsPC-1 cancer cell lines; test: EC50 for Gem-induced cell death or growth inhibition with G418 at fixed concentrations; type: cell-based; conditions: G418 at fixed concentrations with no or little effect on their own; Gem 2 to 5 days
Protocol: Cell culture, cell death assays and growth assays—The T-24 and HT-1376 cell lines were purchased from the German Collection of Microorganisms and Cell Cultures and were cultivated in DMEM, high glucose, containing 10% Fetal Bovine Serum (FBS) or Minimum Essential Medium with 10% FBS and non-essential amino acids, respectively. HT-1197 was a gift from Bioxell (Milano) and was cultured like HT-1376. […] HT-1376 and its clones were incubated for 4 days and HT-1197 for 5 days with Gem including one medium change after 2 days. The percentage of dead cells that took up propidium iodide was determined using flow cytometry. […] Staining with Annexin-V-FITC was performed according to the manufacturer's description (Roche). […] Absorbance was read at 570 nm with reference at 650 nm.
G418 enhances Gem-induced cell death or growth inhibition in various cancer cell lines—Since enhancing Gem action would benefit therapy, we tested whether supplementing Gem with G418 could augment the effect of Gem also in other cancer cell lines. To this end, we added G418 at fixed concentrations and determined the EC50 value for Gem-induced cell death. […]
FIG. 6. […] Cell death was measured by propidium iodide dye exclusion except for MCF-7 and AsPC-1 where cell number was measured by MTT-assay. […]

[2] = concentrations comparable to the concentrations used by the applicant; cited from earlier work
[3] = system: T-24, HT-1376 and HT-1197 cell lines and clones; test: Metabolic labelling of protein synthesis with 35S-methionine/cysteine; type: cell-based
Protocol: Cells were labelled for 1.5 hours in growth medium without methionine and cysteine supplemented with 30 μCi/ml [^35S]-methionine/cysteine. Subsequently, the proteins were precipitated with TCA as described previously (Zhang et al., 2004). The incorporated radioactivity was expressed as counts/μg protein.
FIG. 3. Protein synthesis in the presence of Gem is higher in the resistant clones. […] Medium was removed and replaced for 1.5 h by medium containing 30 μCi/ml ^35S-methionine/cysteine (pulse). […] The reduction in radioactively labelled proteins due to protein degradation during the chase was significant as indicated. (B) The three parental cell lines and HT-1197 and T-24 stably expressing Bcl-2 were incubated with Gem as in (A) in the presence of 40 μM (T-24, HT-1376) or 80 μM z-VAD-fmk (HT-1197) or vehicle (DMSO). Subsequently, the cells were labelled as before. (C) Two sensitive and two resistant clones of each clone set were incubated and labelled as in (A). […] Results are from two independent experiments in duplicate. Error bars depict S.E.M. **P<0.01.
FIG. 5. Protein synthesis inhibitors diminish Gem resistance. (A) Two sensitive and two resistant clones of each clone set were incubated with Gem (T-24: 30 nM, 2 days; HT-1376: 80 nM, 4 days; HT-1197: 120 nM, 5 days). […] Cell death was measured by propidium iodide dye exclusion using flow cytometry. (B) The parental cell lines were incubated with Gem (T-24: 30 nM Gem, 1 day; HT-1376: 80 nM, 3 days; HT-1197: 120 nM, 3 days) in the absence or presence of the indicated protein synthesis inhibitors (250 μg/ml G418 for T-24, 80 μg/ml for HT-1376, 70 μg/ml for HT-1197; 500 ng/ml CHX for all cell lines; 10 nM rapamycin for all cell lines). Subsequently, cells were labeled with 30 μCi/ml ^35S-methionine/cysteine. (C) The parental cell lines were incubated with Gem like for the selection of the Gem-resistant clones and additionally G418 was added at 250 μg/ml (T-24), 80 μg/ml G418 (HT-1376) or 70 μg/ml G418 (HT-1197). Afterward, the remaining cells on the culture plate were stained with crystal violet. A representative assay is shown. All other data are from two independent experiments in duplicate. Error bars represent S.E.M. **P-<0.01, ***p<0.001.

[4] = system: eIF2α, eukaryotic initiation factor 4E binding protein 1, ribosomal protein S6; test: Phosphorylation state of translation regulators upon Gem treatment; type: cell-based
Protocol: Quantitative real-time PCR and immunoblotting—We used the same RNA that was isolated for the DNA microarrays and prepared cDNA using Applied Biosystem (ABI) Reverse Transcription Reagents with random hexamer primers. Real-time PCR was performed using the PCR Master Mix (ABI) and ready-made TaqMan expression assays on an ABI Prism 7000. […] For this clone set, we used another “house-keeping gene”, HPRT1, for normalizing the expression values. Expression levels were calculated according to the formula: 1000*2^([…]). Cell lysis for protein extraction was performed on the same day as metabolic labelling. Immunoblotting was done as described previously (Abraham et al., 2005).

T-24 and HT-1197 = test: Form of Gem-induced cell death, Bcl-2 overexpression; type: cell-based; conditions: inhibited by Bcl-2 overexpression
Protocol: (§1) Cell culture, cell death assays and growth assays—The T-24 and HT-1376 cell lines were purchased from the German Collection of Microorganisms and Cell Cultures and were cultivated in DMEM, high glucose, containing 10% Fetal Bovine Serum (FBS) or Minimum Essential Medium with 10% FBS and non-essential amino acids, respectively. HT-1197 was a gift from Bioxell (Milano) and was cultured like HT-1376. […] HT-1376 and its clones were incubated for 4 days and HT-1197 for 5 days with Gem including one medium change after 2 days. The percentage of dead cells that took up propidium iodide was determined using flow cytometry. […] Staining with Annexin-V-FITC was performed according to the manufacturer's description (Roche). To assess the cell number by staining with 3-(4,5-Dimethylthiazol-2-yl)-2,5-diphenyltetrazolium bromide (MTT), MTT was added at 500 μg/ml. After 2 hours, precipitate was solubilized by addition of 0.04N HCl/Isopropanol. Absorbance was read at 570 nm with reference at 650 nm.
In HT-1376, apoptosis could not be inhibited by Bcl-2. However, this might be attributed to the relatively low overexpression of Bcl-2 (Supplementary FIG. 1).

[5] = system: clones of T-24, HT-1376 and HT-1197 bladder cancer cell lines; test: Cell death by propidium iodide dye exclusion (flow cytometry) in Gem-sensitive and Gem-resistant clones; type: cell-based; conditions: 2 sensitive and 2 resistant clones per clone set; Gem 30 nM 2 days (T-24), 80 nM 4 days (HT-1376), 120 nM 5 days (HT-1197); G418 250 or 70 μg/ml, cycloheximide 500 ng/ml, rapamycin 10 nM
Protocol: as §1
Generation of Gemcitabine-resistant clones and stable cell lines—The T-24 cell line was incubated with 120 nM Gem for 3 days, HT-1376 with 160 nM Gem and HT-1197 with 1.6 μM for 7 days. […] Subsequently, the medium was changed for normal growth medium without Gem and the cells were grown for additional 1 to 3 weeks. […]
FIG. 5. […] Cell death was measured by propidium iodide dye exclusion using flow cytometry. […]

In the case of `CN[C@@H]1[C@@H](O)[C@@H](O[C@@H]2[C@@H](O)[C@H](O[C@H]3O[C@H]([C@@H](C)O)[C@@H](O)[C@H](O)[C@H]3N)[C@@H](N)C[C@H]2N)OC[C@]1(C)O` [G418], the “Decrease of the EC50 value for Gem-induced cell death by addition of G418” value [1] is listed as “up to 30 fold” and the “Effects of G418 treatment on mice” value [2] is listed as “without detectable effects on mice”.

For `Nc1ccn([C@@H]2O[C@H](CO)[C@@H](O)C2(F)F)c(=O)n1` [Gem, 2′-2′-difluorodeoxycytidine], the “Protein synthesis upon Gem treatment of the parental cell lines” value ([3]; T-24 30 nM 1 day, HT-1376 80 nM 3 days, HT-1197 120 nM 3 days) was “protein synthesis was reduced”, the “Protein synthesis upon Gem treatment, resistant versus sensitive clones” value ([3]; two resistant and two sensitive clones of each clone set) was “decreased protein synthesis significantly less in the resistant clones compared to the sensitive clones” and the “Phosphorylation state upon Gem treatment” value [4] was “neither eIF2α nor eukaryotic initiation factor 4E binding protein 1 nor ribosomal protein S6 changed phosphorylation state”. The “Form of cell death induced by Gem” value (T-24 and HT-1197) was “induced an apoptotic form of cell death”.

For `C[C@@H]1C[C@@H]([C@H](O)CC2CC(=O)NC(=O)C2)C(=O)[C@@H](C)C1` [cycloheximide], the “Gem-induced cell death on concomitant treatment with a protein synthesis inhibitor” value [5] was “inhibited Gem-induced cell death” and the “Protein synthesis in the presence of Gem plus a protein synthesis inhibitor” value ([3]; parental cell lines, Gem 30 nM 1 day (T-24), 80 nM 3 days (HT-1376), 120 nM 3 days (HT-1197), G418 250/80/70 μg/ml, CHX 500 ng/ml, rapamycin 10 nM) was “increased protein synthesis compared to Gem alone”.

For z-VAD-fmk, the “Protein synthesis rates with Gem in the presence of the caspase inhibitor” value ([3]; 40 μM (T-24, HT-1376) or 80 μM (HT-1197) z-VAD-fmk) was “did not alter the protein synthesis rates with Gem”.
